Results taken from patent US8349835B2, “Aromatic ring fused triazine derivatives and uses thereof” (Shenyang Pharmaceutical University, priority 2008, dated 2013).
Blank lines part the entries; values can stand above or below the compound they belong to.

What was measured:
VEGFR-2 = VEGFR-2 (Homo sapiens, UniProt P35968); assay: VEGFR-2 inhibition rate test (kinase assay kit, colorimetric ELISA); settings: concentration not given
Rat aortic ring = assay: Rat Aortic Ring Assay; assay type: cell-based; settings: observed on the sixth day
Method in brief: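 1 mm abdominal aortic rings from 6-week-old SD animals embedded in Matrigel, cultured in DMEM/10% FBS with compound at various concentrations (≥3 wells), medium and compound renewed day 3. Microvessel area imaged on day 6 (×100, 3 random rings); inhibition rate scored: ⋆<30-60%, ⋆⋆60-90%, ⋆⋆⋆>90%.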

[1] = tested on: chorioallantoic membrane vessels; assay: Activity test by chick chorioallantoic membrane method; assay type: in vivo; settings: 5 uL medicine on cellulose membrane, chick embryo, 2 days
Protocol: After the shell membrane became wet, tore it open with ophthalmological tweezers so to expose the chorioallantoic membrane. • 6) Added 5 uL of selected medicine to a 0.5×0.5 cm cellulose membrane sterilized by high pressure, then set the membrane on the part of the chorioallantoic membrane with fewer vessels • 7) Closed the window, and put the embryos back into the hatch box to hatch for 2 days. • 8) Opened the transparent tape, and then opened the mixed cellulose membrane lightly with a tweezers. Measured the avascular area and took photographs.

VEGFR-2, sequence (P35968 20-1356): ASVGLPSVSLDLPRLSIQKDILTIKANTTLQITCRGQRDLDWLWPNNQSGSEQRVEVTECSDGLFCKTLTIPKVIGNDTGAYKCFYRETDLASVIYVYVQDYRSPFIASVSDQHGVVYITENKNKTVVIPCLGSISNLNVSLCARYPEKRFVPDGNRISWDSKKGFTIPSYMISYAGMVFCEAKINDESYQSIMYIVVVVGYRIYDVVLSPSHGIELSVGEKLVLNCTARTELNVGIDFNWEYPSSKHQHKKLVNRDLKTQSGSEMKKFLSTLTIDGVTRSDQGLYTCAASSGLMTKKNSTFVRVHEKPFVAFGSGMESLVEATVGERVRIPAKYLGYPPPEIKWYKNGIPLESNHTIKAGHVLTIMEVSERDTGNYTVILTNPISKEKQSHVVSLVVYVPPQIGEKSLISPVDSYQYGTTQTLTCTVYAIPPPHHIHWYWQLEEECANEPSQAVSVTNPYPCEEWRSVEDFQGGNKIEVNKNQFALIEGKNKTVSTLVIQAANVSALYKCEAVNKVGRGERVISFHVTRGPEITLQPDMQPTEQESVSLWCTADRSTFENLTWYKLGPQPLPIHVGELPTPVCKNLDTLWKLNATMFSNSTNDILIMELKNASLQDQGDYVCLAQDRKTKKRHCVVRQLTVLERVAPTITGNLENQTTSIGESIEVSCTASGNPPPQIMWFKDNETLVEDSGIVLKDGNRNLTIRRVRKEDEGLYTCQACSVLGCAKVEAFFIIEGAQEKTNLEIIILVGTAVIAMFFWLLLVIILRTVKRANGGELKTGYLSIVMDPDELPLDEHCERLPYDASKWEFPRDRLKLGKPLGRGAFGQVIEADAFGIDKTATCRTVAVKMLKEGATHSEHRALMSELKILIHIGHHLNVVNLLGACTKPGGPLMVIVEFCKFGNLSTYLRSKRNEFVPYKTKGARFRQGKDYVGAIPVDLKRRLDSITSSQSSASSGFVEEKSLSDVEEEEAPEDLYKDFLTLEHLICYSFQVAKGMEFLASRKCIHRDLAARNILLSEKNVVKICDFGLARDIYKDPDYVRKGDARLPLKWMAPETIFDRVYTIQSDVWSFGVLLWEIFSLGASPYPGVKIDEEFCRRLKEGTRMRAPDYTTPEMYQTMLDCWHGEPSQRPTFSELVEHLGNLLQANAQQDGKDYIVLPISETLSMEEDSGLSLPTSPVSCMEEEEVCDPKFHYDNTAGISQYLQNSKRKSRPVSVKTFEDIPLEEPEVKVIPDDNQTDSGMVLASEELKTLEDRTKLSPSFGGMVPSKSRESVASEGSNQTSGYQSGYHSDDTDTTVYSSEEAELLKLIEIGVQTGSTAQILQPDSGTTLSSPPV

Structure (SMILES): CCCCOc1cc2nnnc(Nc3cccc(OC(F)(F)F)c3)c2cc1OC [Example 19, 6-methoxy-7-n-butoxy-4-(3-trifluoromethoxyanilino)-benzo[d][1,2,3]triazine]
Kinase inhibition rate (VEGFR-2) (VEGFR-2): −56.68 | Rat Aortic Ring Assay (10 ug/ml), result in words (Rat aortic ring): No significant inhibition compared with the blank control. | The inhibitory effect on the growth of chorioallantoic membrane vessels [1]: Vessels are broken in one of two samples,

Structure (SMILES): Fc1ccccc1Nc1nnnc2ccccc12 [Example 3, 4-(2-fluoroanilino)-benzo[d][1,2,3]triazine]
Kinase inhibition rate (VEGFR-2) (VEGFR-2): 19.78 | Rat Aortic Ring Assay (10 ug/ml), result in words (Rat aortic ring): No significant inhibition | The inhibitory effect on the growth of chorioallantoic membrane vessels [1]: Significant inhibition in two of three samples,

Structure (SMILES): FC(F)(F)Oc1cccc(Nc2nnnc3ccccc23)c1 [Example 7, 4-(3-trifluoromethoxyanilino)-benzo[d][1,2,3]triazine]
Kinase inhibition rate (VEGFR-2) (VEGFR-2): −17.64 | Rat Aortic Ring Assay (10 ug/ml), result in words (Rat aortic ring): No significant inhibition | The inhibitory effect on the growth of chorioallantoic membrane vessels [1]: Two samples exhibit significant inhibition ring

More lines, main results first:

Kinase inhibition rate (VEGFR-2) (VEGFR-2): 46.67
Structure (SMILES): CCOc1cc2nnnc(Nc3ccc(F)c(Cl)c3)c2cc1OC [Example 39, 6-methoxy-7-ethoxy-4-(3-chloro-4-fluoroanilino)-benzo[d][1,2,3]triazine]
Rat Aortic Ring Assay (10 ug/ml), result in words (Rat aortic ring): No significant inhibition | The inhibitory effect on the growth of chorioallantoic membrane vessels [1]: One embryo is dead, and the other exhibits no significant inhibition

Kinase inhibition rate (VEGFR-2) (VEGFR-2): 1.51
Structure (SMILES): COc1cc2c(Nc3ccc(C(F)(F)F)cc3)nnnc2cc1OCCCCl [Example 68, 6-methoxy-7-chloropropoxy-4-(4-trifluoromethylanilino)-benzo[d][1,2,3]triazine]
Rat Aortic Ring Assay (10 ug/ml), result in words (Rat aortic ring): Vascular growth is significantly inhibited | The inhibitory effect on the growth of chorioallantoic membrane vessels [1]: Two samples exhibit inhibition at the zone covered by paper.

Kinase inhibition rate (VEGFR-2) (VEGFR-2): −18.71
Structure (SMILES): CCCCCOc1cc2nnnc(Nc3ccc(C(F)(F)F)cc3)c2cc1OC [Example 51, 6-methoxy-7-pentyloxy-4-(4-trifluoromethylanilino)-benzo[d][1,2,3]triazine]
Rat Aortic Ring Assay (10 ug/ml), result in words (Rat aortic ring): No significant inhibition | The inhibitory effect on the growth of chorioallantoic membrane vessels [1]: The samples exhibit significant inhibition ring.

Kinase inhibition rate (VEGFR-2) (VEGFR-2): 3.58
Structure (SMILES): COc1cc2c(Nc3ccccc3)nnnc2cc1OCCCCl [Example 61, 6-methoxy-7-chloropropoxy-4-anilino-benzo[d][1,2,3]triazine]
Rat Aortic Ring Assay (10 ug/ml), result in words (Rat aortic ring): No significant inhibition | The inhibitory effect on the growth of chorioallantoic membrane vessels [1]: One sample exhibits inhibition ring at the zone covered by paper.

Kinase inhibition rate (VEGFR-2) (VEGFR-2): 0.80
Structure (SMILES): COc1cc2c(Nc3cccc(Br)c3)nnnc2cc1OCCCCl [Example 75, 6-methoxy-7-chloropropoxy-4-(3-bromoanilino)-benzo[d][1,2,3]triazine]
Rat Aortic Ring Assay (10 ug/ml), result in words (Rat aortic ring): No significant inhibition | The inhibitory effect on the growth of chorioallantoic membrane vessels [1]: Smaller inhibition ring appears at the zone covered by paper.
